Key:
Assay type in all cases: cell-based
[1] = system: TGF-β1-mediated αSMA expression; assay: Fibroblast-to-Myofibroblast Transition (FMT) in human lung cells derived from IPF patient donors; details: primary human bronchial fibroblasts from IPF donors; 8 concentrations up to 10 μM; FIG. 2
Experimental: Fibroblast-to-Myofibroblast Transition (FMT) in Human Lung Cells Derived from Idiopathic Pulmonary Fibrosis (IPF) Patient Donors
Lung-derived primary human bronchial fibroblasts (from IPF donors) were seeded at 3,000 cells per well in 96-well plates, and were grown over 5 days prior to treatment with the desired compounds (cell medium was refreshed at 48 h). Cells were then treated with 8 different concentrations of Compound 8 or 46, in semi-log dilutions starting from the top dosage of 10 μM (vehicle control: 0.1% DMSO; positive control: SB525334 and nintendanib). 1-hour post compound addition, the cells were stimulated with the addition of 1.25 ng/mL TGF-β1, and incubated for 72 hours. Cells were then fixed with 4% formaldehyde, then stained using […] and imaged via high-content analysis. The assay was conducted in biological duplicates. This in vitro FMT assay results were provided by Charles River Laboratories through a service agreement.

[2] = system: Connective Tissue Growth Factor (CTGF) gene expression; assay: Real time quantitative PCR in TGFβ-stimulated human hepatic stellate cells (LX2) to detect CTGF gene expression; details: LX-2, 5 μM, CTGF mRNA in TGFβ-stimulated LX2 cells vs vehicle control
Experimental: Real Time Quantitative Polymerase Chain Reaction in Human Hepatic Stellate Cells (LX2) to Detect Connective Tissue Growth Factor (CTGF) Gene Expression The hepatic stellate cell line, LX2 was maintained in DMEM (LifeTechnologies) with 2% heat-inactivated FBS, 100U penicillin (LifeTechnologies), 0.1 mg/mL streptomycin (LifeTechnologies), and 2 mM L-glutamine (LifeTechnologies) at 37° C. with 5% CO2. Cells were seeded into 6-well plates (200,000 cells per well, 2 mLs media) and grown overnight. The cells were changed to 2 mLs 0.5% FBS media for 24 hours prior to treatment. Treatments were added in 2 mLs fresh 0.5% FBS media (vehicle control, long/mL TGFβ alone (R&D Systems), 10 ng/mL TGFβ+inhibitors) and incubated for 24 hours. […] RNA was extracted using Qiagen RNeasy kit (cat #74104), according to manufacturer's instructions. RNA (1 μg) was used to generate cDNA using the Qiagen Quantitect Reverse Transcription Kit (cat #205311), and stored at -20° C. cDNA was diluted (1:25 final) and combined with Sybr Green (Qiagen cat #204143), forward and reverse primers (50 ng each) and run on Real Time PCR Thermocycler machine (RG-6000, Corbett) with the following PCR conditions: Hold 1: 50° C. for 2 min; Hold 2: 95° C. for 15 min; Cycling: 45 cycles of: 95° C. for 30 sec, 58° C. for 21 sec, 72° C. for 15 sec, Hold 3: 72° C. for 30 sec, Melt: 72° C. to 99° C. GAPDH primers (Forward: [NT]; Reverse: [NT] primers (Forward: [NT]; Reverse: [NT] primers available from Origene, cat #HP205671)].

Des1 (h) = biological target: T1, Des1 (h) (Homo sapiens, UniProt O15121); assay: Measurement of Dihydroceramide Desaturase-1 (Des-1) activity in intact Jurkat cells labeled with DhCer-C6-NBD (HPLC); details: intact Jurkat cells; given as concentration range, or <X / >X if measured at one concentration X only; read-out: Des1 (h) Jurkat IC50
T1 construct: endogenous in cells; host or cells: parental Jurkat cells
T1 sequence (O15121 1-323): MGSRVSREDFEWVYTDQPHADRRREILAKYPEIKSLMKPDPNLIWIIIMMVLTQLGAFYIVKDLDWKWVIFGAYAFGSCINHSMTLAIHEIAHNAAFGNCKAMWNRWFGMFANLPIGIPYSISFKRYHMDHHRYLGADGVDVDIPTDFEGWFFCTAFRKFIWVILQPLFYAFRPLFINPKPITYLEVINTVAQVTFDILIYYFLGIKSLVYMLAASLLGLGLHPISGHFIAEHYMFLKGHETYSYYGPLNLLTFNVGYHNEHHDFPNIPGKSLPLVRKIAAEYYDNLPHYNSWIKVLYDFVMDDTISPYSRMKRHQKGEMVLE
In short: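 Intact parental Jurkat cells in 0.5% serum medium were labelled with DhCer-C6-NBD; cells harvested at 500×g and ceramides extracted. NBD-labelled substrate and product resolved by C18 reverse-phase HPLC and quantified by fluorescence (ex 465/em 530 nm) as a measure of Des-1 activity.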

IC50 (Des1 (h)): 100 to 1000 nM
Compound: N=C(NO)c1ccc(Nc2ncc(-c3ccc(C(F)(F)F)cn3)o2)cn1 [Example 46, N′-hydroxy-5-((5-(5-(trifluoromethyl)pyridin-2-yl)oxazol-2-yl)amino)-picolinimidamide]
inhibition of TGF-β1-mediated αSMA expression in IPF donors [1]: concentration-dependent inhibition
inhibition at 5 µM [2]: > 90%

From US12448371B2, “Inhibitor compounds” (Cincera Therapeutics Pty Ltd, priority 2019, dated 2025)
